Measured values: patent US6511978B1, “Pyrrole derivatives useful for farnesyl transferase inhibitors and their preparations” (LG Life Sciences, Ltd., priority 1999, dated 2003)

Key:
Ras farnesyl transferase [1] = target: T1, Ras farnesyl transferase (Homo sapiens, UniProt P49354+P49356); experiment: Ras farnesyl transferase enzyme inhibition, H-Ras substrate; assay type: biochemical; conditions: H-Ras substrate protein; recombinant farnesyl transferase; 30 minutes at 37° C.
T1 construct: made in house
From the text: (§1) In the present experiment, the improved Pompliano's method (see: Pompliano et al., Biochemistry, 31, 3800, 1992) was applied. Specifically, Ras farnesyl transferase produced by genetic recombination techniques was used, and fused protein of H-Ras(H-Ras-CVLS) substituted with polybasic lysine domain at C-terminus of K-Ras (see: Korean Patent Appln. No. 97-14409) was used as a substrate after it had been purified according to the known method(see, Chung et al., Biochimica et Biophysica Acta, 1129, 278, 1992).
(§2) The enzyme reaction was performed in 50 μl of 50 mM Sodium HEPES buffer solution containing 25 mM of potassium chloride, 25 mM of magnesium chloride, 10 mM of DTT and 50 μM of zinc chloride. 1.5 μM of Ras substrate protein, 0.15 μM of tritium-farnesylpyrophosphate and 4.5 nM of farnesyl transferase were used. More specifically, in the initial step, farnesyl transferase was added to the above buffer solution, reaction was maintained for 30 minutes at 37° C. and then the reaction was stopped by adding 1 ml of ethanol solution containing 1M HCl. The formed precipitates were adsorbed to GF/B filter using Hopper harvestor(Hopper #FH 225V) for filter-binding, washed with ethanol, and then radioactivity of the dried filter was measured using LKB β counter. Enzyme titer was measured in the unsaturated state of substrate where the concentration of Ras substrate protein and farnesyl transferase have quantitative relationship. The compound according to the present invention dissolved in dimethyl sulfoxide(DMSO) was added to the reaction solution in an amount of less than 5% of the total reaction solution, and then the enzyme inhibitory activity thereof was measured. The enzyme inhibitory activity was represented by percentage of the amount of farnesyl incorporated into the Ras substrate protein in the presence of the test compound to that in the absence of the test compound. IC50 of the test compound was defined as the concentration at which 50% of the enzyme activity was inhibited. To evaluate the selective enzyme inhibitory activity of the compound according to the present invention, inhibitory activity on geranylgeranyl transferase was measured. Geranylgeranyl transferase was purified from bovine brain according to the modified Schaber's method(Schaber et al., J. Biol. Chem. 265, 14701, 1990), and substantially the same experimental procedure as that for farnesyl transferase was performed on geranylgeranyl pyrophosphate and Ras-CVIL substrate protein.

Ras farnesyl transferase [2] = target: T1, Ras farnesyl transferase; experiment: Ras farnesyl transferase enzyme inhibition, K-Ras substrate (H-Ras fused with polybasic lysine domain of K-Ras); assay type: biochemical; conditions: K-Ras substrate (fused protein of H-Ras with polybasic lysine domain of K-Ras); recombinant farnesyl transferase
From the text: as §1, §2

Ras farnesyl transferase [3] = target: T2, Ras farnesyl transferase (Rattus norvegicus, UniProt Q02293+Q04631); experiment: In vivo (intracellular) Ras farnesylation inhibition in Rat2 cell line expressing C-Harvey-Ras; assay type: cell-based; conditions: Rat2 cells expressing C-Harvey-Ras; concentration inhibiting 50% of farnesyl binding; read-out: H-Ras CIC50
T2 construct: endogenous in cells; host or cells: Rat2 fibroblasts transformed with C-Harvey-Ras or with the H-Ras/K-Ras polybasic-domain fusion
Experimental: (§3) In the present experiment, Rat2 cell line which expresses C-Harvey-Ras protein having transforming activity and Rat2 cell line(Korean patent application No. 97-14409) which is transformed with fused protein of H-Ras substituted with polybasic lysine domain at C-terminus of K-Ras were used. The experiment was performed by the modified Declue's method(Declue. J. E. et al., Cancer Research, 51, 712, 1991) as follows.
(§4) 3×10^5 cells of transformed Rat2 fibroblast cell line were sprayed on 60 mm cell cultivation dish and cultivated for 48 hours in a cell incubator at 37° C. and after 50% or more of density was reached, it was treated with the test compounds. The compound according to the present invention dissolved in dimethylsulfoxide(DMSO) was used. 1% concentration of dimethylsulfoxide was used in both control and test groups. After 4 hours from the treatment with the compound, methionine labeled with 150 μCi of radioactive isotope [^35S] per 1 ml of medium was added and after cultivating for 20 hours, the cells were washed with physiological saline water. The cells were lysed using 1 ml of cold cell lysis buffer solution(50 mM of Sodium HEPES buffer solution containing 5 mM of magnesium chloride, 1 mM of DTT, 1% NP 40, 1 mM of EDTA, 1 mM of PMSF, 2 μM of leupeptin, 2 μM of pepstatin A and 2 μM of antipain) and the supernatant wherein the cells were lysed was obtained by high-velocity centrifugation of 12,000 g×5 minutes. The amount of radioisotope in the supernatant was measured and standardized to obtain a quantitative result in immunoprecipitation reaction and then, Y13-259, a monoclonal antiboby specifically binding to Ras protein(see: Furth, M. E. et al., J. Virol, 43, 294, 1982) was added and reacted for 15 hours at 4° C. Protein A(combined with goat anti-murine immunoglobulin antibody)-agarose suspension was added to the solution and reacted for 1 hour at 4° C. and then, to remove the unspecific binding product, immunoprecipitates were washed with a buffer solution (50 mM Tris chloride buffer solution containing 50 mM of sodium chloride, 0.5% of sodium dioxycholate, 0.5% of NP 40 and 0.1% of SDS). The precipitates were added to a buffer solution for electrophoresis and boiled and then, electrophoresis was performed using 13.5% of SDS polyacrylamide gel. After electrophoresis, the gel was fixed and dried. Then, the gel was exposed to X-ray film, developed and printed. From the result of the experiment, intensities of band of protein combined with or without farnesyl of Ras protein was measured, and the concentration of the test compound inhibiting 50% of farnesyl binding was defined as CIC50, an in vivo Ras farnesyl transferase inhibitory activity. IC50 means the data from Experimental 1 and CIC50 means the data from Experimental 2.

Ras farnesyl transferase [4] = target: T2, Ras farnesyl transferase; experiment: In vivo (intracellular) Ras farnesylation inhibition in Rat2 cell line transformed with H-Ras fused with polybasic lysine domain of K-Ras; assay type: cell-based; conditions: Rat2 cells transformed with H-Ras/K-Ras polybasic domain fused protein; concentration inhibiting 50% of farnesyl binding; read-out: K-Ras CIC50
Experimental: as §3, §4

In the case of `Cc1ncn(Cc2ccc3c(c2)OCO3)c1Cn1cc(C(=O)N2CCN(C)CC2)c(-c2cccc3ccccc23)c1` [Example 16, 1-[4-methyl-1-(3,4-methylenedioxybenzyl)-1H-imidazol-5-ylmethyl]-3-(4-methylpiperazin-1-yl)carbonyl-4-(naphthalen-1-yl)-1H-pyrrole], the IC50 (Ras farnesyl transferase [1]) is reported as < 1.5 nM, the IC50 (Ras farnesyl transferase [2]) is reported as < 2.3 nM and the IC50 (Ras farnesyl transferase [3]) is reported as > 25 nM. For the same molecule, the IC50 (Ras farnesyl transferase [4]) was > 10000 nM.

For `CN1CCN(C(=O)c2cn(Cc3cnc(N)n3Cc3ccc4c(c3)OCO4)cc2-c2cccc3ccccc23)CC1` [Example 17, 1-[2-amino-1-(3,4-methylenedioxybenzyl)-1H-imidazol-5-ylmethyl]-3-(4-methylpiperazin-1-yl)carbonyl-4-(naphthalen-1-yl)-1H-pyrrole], the IC50 (Ras farnesyl transferase [1]) was < 1.8 nM, the IC50 (Ras farnesyl transferase [2]) was < 6.4 nM and the IC50 (Ras farnesyl transferase [3]) was > 25 nM. The IC50 (Ras farnesyl transferase [4]) was > 10000 nM.

In the case of `CSc1ncc(Cn2cc(C(=O)N3CCN(C)CC3)c(-c3cccc4ccccc34)c2)n1Cc1ccc2c(c1)OCO2` [Example 18, 1-[1-(3,4-methylenedioxybenzyl)-2-methylthio-1H-imidazol-5-ylmethyl]-3-(4-methylpiperazin-1-yl)carbonyl-4-(naphthalen-1-yl)-1H-pyrrole], the IC50 (Ras farnesyl transferase [1]) is reported as < 3.5 nM, the IC50 (Ras farnesyl transferase [2]) is reported as < 12 nM and the IC50 (Ras farnesyl transferase [3]) is reported as > 25 nM. The IC50 (Ras farnesyl transferase [4]) was > 10000 nM.

In the case of `CSc1c(C(=O)N2CCN(C)CC2)c(-c2cccc3ccccc23)cn1Cc1cncn1Cc1ccc2c(c1)OCO2` [Example 19, 1-[1-(3,4-methylenedioxybenzyl)-1H-imidazol-5-ylmethyl]-3-(4-methylpiperazin-1-yl)carbonyl-2-methylthio-4-(naphthalen-1-yl)-1H-pyrrole], the IC50 (Ras farnesyl transferase [1]) is reported as < 0.95 nM, the IC50 (Ras farnesyl transferase [2]) is reported as < 2 nM and the IC50 (Ras farnesyl transferase [3]) is reported as < 12.5 nM. The IC50 (Ras farnesyl transferase [4]) was > 10000 nM.

For `CN1CCN(C(=O)c2cn(Cc3c(I)ncn3Cc3ccc4c(c3)OCO4)cc2-c2cccc3ccccc23)CC1` [Example 20, 1-[4-iodo-1-(3,4-methylenedioxybenzyl)-1H-imidazol-5-ylmethyl]-3-(4-methylpiperazin-1-yl)carbonyl-4-(naphthalen-1-yl)-1H-pyrrole], the IC50 (Ras farnesyl transferase [1]) was < 3.5 nM, the IC50 (Ras farnesyl transferase [2]) was < 18 nM and the IC50 (Ras farnesyl transferase [3]) was > 25 nM. For the same molecule, the IC50 (Ras farnesyl transferase [4]) was > 10000 nM.

With `CN1CCN(C(=O)c2cn(Cc3c([N+](=O)[O-])ncn3Cc3ccc4c(c3)OCO4)cc2-c2cccc3ccccc23)CC1` [Example 21, 1-[1-(3,4-methylenedioxybenzyl)-4-nitro-1H-imidazol-5-ylmethyl]-3-(4-methylpiperazin-1-yl)carbonyl-4-(naphthalen-1-yl)-1H-pyrrole] the IC50 (Ras farnesyl transferase [1]) was > 30 nM, the IC50 (Ras farnesyl transferase [2]) was > 30 nM and the IC50 (Ras farnesyl transferase [3]) was > 30 nM. The IC50 (Ras farnesyl transferase [4]) was > 10000 nM.

In the case of `CN1CCN(C(=O)c2cn(Cc3c(N)ncn3Cc3ccc4c(c3)OCO4)cc2-c2cccc3ccccc23)CC1` [Example 22, 1-[4-amino-1-(3,4-methylenedioxybenzyl)-1H-imidazol-5-ylmethyl]-3-(4-methylpiperazin-1-yl)carbonyl-4-(naphthalen-1-yl)-1H-pyrrole], the IC50 (Ras farnesyl transferase [1]) is reported as < 2.7 nM, the IC50 (Ras farnesyl transferase [2]) is reported as < 30 nM and the IC50 (Ras farnesyl transferase [3]) is reported as > 25 nM. For the same molecule, the IC50 (Ras farnesyl transferase [4]) was > 10000 nM.

`CON1CCN(C(=O)c2cn(Cc3c(C)ncn3Cc3ccc4c(c3)OCO4)cc2-c2cccc3ccccc23)CC1` [Example 23, 3-(4-methoxypiperazin-1-yl)carbonyl-1-[4-methyl-1-(3,4-methylenedioxybenzyl)-1H-imidazol-5-ylmethyl]-4-(naphthalen-1-yl)-1H-pyrrole] was tested, and the IC50 (Ras farnesyl transferase [1]) was < 22 nM, the IC50 (Ras farnesyl transferase [2]) was > 30 nM and the IC50 (Ras farnesyl transferase [3]) was > 30 nM. For the same molecule, the IC50 (Ras farnesyl transferase [4]) was > 10000 nM.

`Cc1c(C(=O)N2CCN(C)CC2)c(-c2cccc3ccccc23)cn1Cc1cncn1Cc1ccc2c(c1)OCO2` [Example 24, 2-methyl-1-[1-(3,4-methylenedioxybenzyl)-1H-imidazol-5-ylmethyl]-3-(4-methylpiperazin-1-yl)carbonyl-4-(naphthalen-1-yl)-1H-pyrrole] was tested, and the IC50 (Ras farnesyl transferase [1]) was < 4.45 nM, the IC50 (Ras farnesyl transferase [2]) was < 7 nM and the IC50 (Ras farnesyl transferase [3]) was > 25 nM. The IC50 (Ras farnesyl transferase [4]) was < 10000 nM.

In the case of `CCSc1c(C(=O)N2CCN(C)CC2)c(-c2cccc3ccccc23)cn1Cc1cncn1Cc1ccc2c(c1)OCO2` [Example 25, 2-ethylthio-1-[1-(3,4-methylenedioxybenzyl)-1H-imidazol-5-ylmethyl]-3-(4-methylpiperazin-1-yl)carbonyl-4-(naphthalen-1-yl)-1H-pyrrole], the IC50 (Ras farnesyl transferase [1]) is reported as < 2 nM, the IC50 (Ras farnesyl transferase [2]) is reported as < 6 nM and the IC50 (Ras farnesyl transferase [3]) is reported as < 10 nM. The IC50 (Ras farnesyl transferase [4]) was < 5000 nM.

With `COc1ccccc1CCn1c(Cn2cc(C(=O)N3CCN(C)CC3)c(-c3cccc4ccccc34)c2)cnc1C` [Example 26, 1-[1-(2-methoxyphenethyl)-2-methyl-1H-imidazol-5-ylmethyl]-3-(4-methylpiperazin-1-yl)carbonyl-4-(naphthalen-1-yl)-1H-pyrrole] the IC50 (Ras farnesyl transferase [1]) was < 2 nM, the IC50 (Ras farnesyl transferase [2]) was < 6.5 nM and the IC50 (Ras farnesyl transferase [3]) was < 25 nM. The IC50 (Ras farnesyl transferase [4]) was > 10000 nM.

With `CCOCCCn1c(Cn2cc(C(=O)N3CCN(C)CC3)c(-c3cccc4ccccc34)c2)cnc1C` [Example 27, 1-[1-(3-ethoxypropyl)-2-methyl-1H-imidazol-5-ylmethyl]-3-(4-methylpiperazin-1-yl)carbonyl-4-(naphthalen-1-yl)-1H-pyrrole] the IC50 (Ras farnesyl transferase [1]) was < 3 nM, the IC50 (Ras farnesyl transferase [2]) was > 20 nM and the IC50 (Ras farnesyl transferase [3]) was < 25 nM. For the same molecule, the IC50 (Ras farnesyl transferase [4]) was > 10000 nM.

With `CCOCCCn1cnc(C)c1Cn1cc(C(=O)N2CCN(C)CC2)c(-c2cccc3ccccc23)c1` [Example 28, 1-[1-(3-ethoxypropyl)-4-methyl-1H-imidazol-5-ylmethyl]-3-(4-methylpiperazin-1-yl)carbonyl-4-(naphthalen-1-yl)-1H-pyrrole] the IC50 (Ras farnesyl transferase [1]) was < 2.2 nM, the IC50 (Ras farnesyl transferase [2]) was < 3.2 nM and the IC50 (Ras farnesyl transferase [3]) was < 6.25 nM. For the same molecule, the IC50 (Ras farnesyl transferase [4]) was < 10000 nM.

For `Cc1ncn(CCCOCc2ccccc2)c1Cn1cc(C(=O)N2CCN(C)CC2)c(-c2cccc3ccccc23)c1` [Example 29, 1-[1-(3-benzyloxypropyl)-4-methyl-1H-imidazol-5-ylmethyl]-3-(4-methylpiperazin-1-yl)carbonyl-4-(naphthalen-1-yl)-1H-pyrrole], the IC50 (Ras farnesyl transferase [1]) was < 2.45 nM, the IC50 (Ras farnesyl transferase [2]) was < 2.7 nM and the IC50 (Ras farnesyl transferase [3]) was < 6.25 nM. For the same molecule, the IC50 (Ras farnesyl transferase [4]) was < 10000 nM.

`COCCN(C)C(=O)c1cn(Cc2c(C)ncn2CCCOCc2ccccc2)cc1-c1cccc2ccccc12` [Example 30, 1-[1-(3-benzyloxypropyl)-4-methyl-1H-imidazol-5-ylmethyl]-3-[N-(2-methoxyethyl)-N-methyl]carbamoyl-4-(naphthalen-1-yl)-1H-pyrrole] was tested, and the IC50 (Ras farnesyl transferase [1]) was < 5 nM, the IC50 (Ras farnesyl transferase [2]) was < 2.1 nM and the IC50 (Ras farnesyl transferase [3]) was < 12.5 nM. The IC50 (Ras farnesyl transferase [4]) was < 10000 nM.
